System: radiation induced gastrointestinal tract injury
Assay: Radiation-induced gastrointestinal tract injury in mice, mucosal alteration histological scoring
Format: in vivo, male C57BL/6 mice
Conditions: enemas 75 mg/kg body weight for 9 days from day of irradiation; Cs-137 12 Gy to pelvic area; versus saline enemas
Description: Fourteen male C57BL/6 mice were treated with enemas containing either 75 mg/kg body weight of Mesna or saline as a control for 9 days post-exposure to Cs-137 radiation (12 Gy) in the pelvic area. Radiation Injury Histological Scoring (0=no change, 3=severe change) was employed to assess treatment efficacy. The present invention is based in part on the unexpected finding that the rectal administration of Mesna to mice experiencing radiation induced gastrointestinal tract injury, reduces symptoms of the condition. In the present study, 14 male C57BL/6 mice were randomly divided into two groups—treatment group and control group. The pelvic area (containing the ano-rectal part of the intestine) of each mouse was exposed to a Cs-137 source and irradiated over 2 minutes at a rate of 6 Gy/min (a 12 Gy dose). Starting from the day of irradiation and for a period of 9 days, mice in the treatment group received enemas containing Mesna at a dose of 75 mg/kg body weight. Animals in the control group received saline enemas as a control. Animals were sacrificed nine days post irradiation and gross necropsy of the anus, rectum and colon was performed and documented by high resolution color pictures. […]

SMILES: O=S(=O)([O-])CCS.[Na+] [Mesna, sodium 2-sulfanylethanesulfonate]
- mucosal alteration score (0=no change, 3=severe change): significantly reduced

Reference: US9937136B2, “Methods for treating radiation induced gastrointestinal tract injury” (RDD PHARMA LTD., priority 2013, dated 2018)
